# Where “and” joins values, the source holds several entries; their conditions need not be identical. Equal values may be shown once. Inconclusive results and toxic doses are left out. Peptide text beside a SMILES is read from it. * marks the point of attachment. Cbz = O=C(OCc1ccccc1)*
# System: P388 leukemia ip, CD2F1 mice, survival T/C
# Assay: NCI In Vivo Anticancer Drug Screen. Data for tumor model P388 Leukemia (intraperitoneal) in CD2F1 (CDF1) mice
# Conditions: endpoint: median survival time, higher = longer survival
# Procedure, shortened: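 Mice carrying the transplanted tumor received test compound or vehicle. Survival was recorded in each group, and the value is the treated-group measurement divided by that of the vehicle-treated control group.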
# [1] = dose: 100.0 mg/kg/injection, schedule: Q01DX009 (ip), vehicle: Klucel (hydroxypropylcellulose) (HPC)
# [2] = dose: 200.0 mg/kg/injection, schedule: Q01DX009 (ip), vehicle: Klucel (hydroxypropylcellulose) (HPC)
# [3] = dose: 400.0 mg/kg/injection, schedule: Q01DX009 (ip), vehicle: Klucel (hydroxypropylcellulose) (HPC)
# [4] = dose: 50.0 mg/kg/injection, schedule: Q01DX005 (ip), vehicle: Klucel (hydroxypropylcellulose) (HPC)
# [5] = dose: 100.0 mg/kg/injection, schedule: Q01DX005 (ip), vehicle: Klucel (hydroxypropylcellulose) (HPC)
# [6] = dose: 200.0 mg/kg/injection, schedule: Q01DX005 (ip), vehicle: Klucel (hydroxypropylcellulose) (HPC)
# [7] = dose: 12.5 mg/kg/injection, schedule: Q01DX009 (ip), vehicle: saline
# [8] = dose: 25.0 mg/kg/injection, schedule: Q01DX009 (ip), vehicle: saline
# [9] = dose: 50.0 mg/kg/injection, schedule: Q01DX009 (ip), vehicle: saline
# [10] = dose: 6.25 mg/kg/injection, schedule: Q01DX009 (ip), vehicle: Klucel (hydroxypropylcellulose) (HPC)
# [11] = dose: 50.0 mg/kg/injection, schedule: Q01DX009 (ip), vehicle: saline with Tween-80
# [12] = dose: 100.0 mg/kg/injection, schedule: Q01DX009 (ip), vehicle: saline with Tween-80
# [13] = dose: 200.0 mg/kg/injection, schedule: Q01DX009 (ip), vehicle: saline with Tween-80
# [14] = dose: 50.0 mg/kg/injection, schedule: Q01DX009 (ip), vehicle: Klucel (hydroxypropylcellulose) (HPC)
# [15] = dose: 25.0 mg/kg/injection, schedule: Q01DX009 (ip), vehicle: saline with Tween-80
# [16] = dose: 100.0 mg/kg/injection, schedule: Q01DX009 (ip), vehicle: saline
# [17] = dose: 200.0 mg/kg/injection, schedule: Q01DX009 (ip), vehicle: saline
# [18] = dose: 6.25 mg/kg/injection, schedule: Q01DX009 (ip), vehicle: saline
# [19] = dose: 50.0 mg/kg/injection, schedule: Q01DX005 (ip), vehicle: saline with Tween-80
# [20] = dose: 100.0 mg/kg/injection, schedule: Q01DX005 (ip), vehicle: saline with Tween-80
# [21] = dose: 200.0 mg/kg/injection, schedule: Q01DX005 (ip), vehicle: saline with Tween-80
smiles,measurement,setting,value
C=CCN1C(=O)CSC1=S,T/C,[1],100 % of control
same,T/C,[2],108 % of control
same,T/C,[3],110 % of control
Cc1nc2c([N+](=O)[O-])cc(C(=O)O)cc2[nH]1,T/C,"dose: 60.0 mg/kg/injection, schedule: Q01DX005 (ip), vehicle: saline",100 % of control
same,T/C,"dose: 120.0 mg/kg/injection, schedule: Q01DX005 (ip), vehicle: saline",97 % of control
same,T/C,"dose: 240.0 mg/kg/injection, schedule: Q01DX005 (ip), vehicle: saline",87 % of control
CCOc1ccc(C(C)c2cc3c(cc2OC)OCO3)cc1C (centres undefined),T/C,[4],109 % of control and 113 % of control
same,T/C,[5],108 % of control and 118 % of control
same,T/C,[6],116 % of control
same,T/C,"dose: 400.0 mg/kg/injection, schedule: Q01DX005 (ip), vehicle: Klucel (hydroxypropylcellulose) (HPC)",165 % of control
O=C1NC(CO)C(=O)N2CCCC12 (centres undefined),T/C,[7],100 % of control
same,T/C,[8],99 % of control
same,T/C,[9],99 % of control
CC(C)c1ccc(/C=N\NC(=S)N/N=C\c2ccc(C(C)C)cc2)cc1,T/C,[10],96 % of control
same,T/C,"dose: 12.5 mg/kg/injection, schedule: Q01DX009 (ip), vehicle: Klucel (hydroxypropylcellulose) (HPC)",86 % of control
CC1(C)O[C@H]2CC(=O)OC[C@]23[C@H]2CC[C@@]4(C)C(c5ccoc5)OC(=O)[C@H]5O[C@]54[C@]2(C)[C@@H](OC(=O)CCl)C[C@@H]13 (some centres undefined),T/C,"dose: 0.5 mg/kg/injection, schedule: Q01DX009 (ip), vehicle: saline + alcohol",113 % of control
same,T/C,"dose: 1.0 mg/kg/injection, schedule: Q01DX009 (ip), vehicle: saline + alcohol",111 % of control
CCOC(=O)/C=C1\NC(=O)N(CCCCCCN2C(=O)N/C(=C\C(=O)OCC)C2=O)C1=O,T/C,[11],101 % of control
same,T/C,[12],93 % of control
same,T/C,[13],93 % of control
c1ccc2c(c1)ncc1cccn12,T/C,[14],106 % of control
same,T/C,[1],107 % of control
same,T/C,[2],105 % of control
same,T/C,[3],106 % of control
CC(C)CC(NC(c1ccccc1)(c1ccccc1)c1ccccc1)C(=O)O (centres undefined),T/C,"dose: 60.0 mg/kg/injection, schedule: Q01DX005 (ip), vehicle: Klucel (hydroxypropylcellulose) (HPC)",103 % of control
same,T/C,"dose: 120.0 mg/kg/injection, schedule: Q01DX005 (ip), vehicle: Klucel (hydroxypropylcellulose) (HPC)",106 % of control
N=c1c(C(=O)OCc2ccccc2)ncc(CCl)n1O,T/C,[15],114 % of control
same,T/C,[11],124 % of control
same,T/C,[12],123 % of control
same,T/C,[13],116 % of control
Cc1ccc(O)c[n+]1[O-],T/C,[8],101 % of control
same,T/C,[9],100 % of control and 105 % of control
same,T/C,[16],102 % of control and 97 % of control
same,T/C,[17],105 % of control and 117 % of control
same,T/C,"dose: 400.0 mg/kg/injection, schedule: Q01DX009 (ip), vehicle: saline",108 % of control and 109 % of control
N=C(N)c1ccc(N=Nc2cc(N=Nc3ccccc3)ccc2O)cc1,T/C,"dose: 25.0 mg/kg/injection, schedule: Q01DX005 (ip), vehicle: Klucel (hydroxypropylcellulose) (HPC)",109 % of control
same,T/C,[4],113 % of control
same,T/C,[5],115 % of control
same,T/C,[6],115 % of control
Clc1cccc2nc(-c3ccccn3)n(CCc3ccccn3)c12,T/C,[4],96 % of control
same,T/C,[5],100 % of control
same,T/C,[6],100 % of control
CCCCCC1OC1CC1OC1CCCCCCCC(=O)OC (centres undefined),T/C,[4],96 % of control
same,T/C,[5],96 % of control
same,T/C,[6],104 % of control
O=c1c2cc3ccccc3cc2c(=O)n2n1CC(O)C(Br)C2 (centres undefined),T/C,"dose: 25.0 mg/kg/injection, schedule: Q01DX009 (ip), vehicle: DMSO",101 % of control
same,T/C,"dose: 50.0 mg/kg/injection, schedule: Q01DX009 (ip), vehicle: DMSO",105 % of control
same,T/C,"dose: 100.0 mg/kg/injection, schedule: Q01DX009 (ip), vehicle: DMSO",105 % of control
CCC[N+]1(CC)CCCCC1,T/C,"dose: 3.12 mg/kg/injection, schedule: Q01DX009 (ip), vehicle: saline",103 % of control
same,T/C,[18],99 % of control
same,T/C,[7],100 % of control
CCOC(=O)c1c(NC(=O)c2ccccc2)sc2c(=O)oc(-c3ccccc3)nc12,T/C,[4],97 % of control
same,T/C,[5],90 % of control
same,T/C,[6],90 % of control
CCCCCC1(CCCCCCCC(O)CC(=O)OCC)OCCO1 (centres undefined),T/C,"dose: 100.0 mg/kg/injection, schedule: Q01DX001 (ip), vehicle: Klucel (hydroxypropylcellulose) (HPC)",100 % of control
same,T/C,"dose: 200.0 mg/kg/injection, schedule: Q01DX001 (ip), vehicle: Klucel (hydroxypropylcellulose) (HPC)",108 % of control
same,T/C,"dose: 400.0 mg/kg/injection, schedule: Q01DX001 (ip), vehicle: Klucel (hydroxypropylcellulose) (HPC)",100 % of control
CCOC(=O)C(Cc1csc2ccc(Cl)cc12)(NC(C)=O)C(=O)OCC,T/C,[14],96 % of control
same,T/C,[1],96 % of control
same,T/C,[2],94 % of control
O=C(NC(=O)c1c(F)cccc1F)Nc1cccc(Oc2ncc(Cl)cn2)c1,T/C,"dose: 15.0 mg/kg/injection, schedule: Q01DX005 (ip), vehicle: saline with Tween-80",111 % of control
same,T/C,"dose: 30.0 mg/kg/injection, schedule: Q01DX005 (ip), vehicle: saline with Tween-80",96 % of control
same,T/C,"dose: 60.0 mg/kg/injection, schedule: Q01DX005 (ip), vehicle: saline with Tween-80",94 % of control and 95 % of control
O=C(NC(Cc1ccc(O)cc1)C(=O)NC(Cc1ccccc1)C(=O)O)OCc1ccccc1 (stereo not drawn) (Cbz-Tyr-Phe-OH; configuration not given here),T/C,[19],102 % of control
same,T/C,[20],106 % of control
same,T/C,[21],104 % of control
CCCCCCCCCCC[N+](C)([O-])CCCCCC[N+](C)([O-])CCCCCCCCCCC (centres undefined),T/C,"dose: 12.5 mg/kg/injection, schedule: Q01DX009 (ip), vehicle: saline with Tween-80",100 % of control
same,T/C,[15],100 % of control
same,T/C,[11],102 % of control and 96 % of control
C=CC1(OC)CC1C(=O)OCC (centres undefined),T/C,"dose: 43.0 mg/kg/injection, schedule: Q01DX005 (ip), vehicle: Klucel (hydroxypropylcellulose) (HPC)",99 % of control
same,T/C,"dose: 86.0 mg/kg/injection, schedule: Q01DX005 (ip), vehicle: Klucel (hydroxypropylcellulose) (HPC)",112 % of control
same,T/C,"dose: 172.0 mg/kg/injection, schedule: Q01DX005 (ip), vehicle: Klucel (hydroxypropylcellulose) (HPC)",97 % of control
CC(=O)Oc1cc2nc3ccccc3nc2cc1N(C)C,T/C,[9],99 % of control
same,T/C,[16],90 % of control
same,T/C,[17],100 % of control
O=C(OC1(c2nccc3ccccc23)CCN(CCc2ccccc2)CC1)c1ccccc1,T/C,[18],105 % of control
same,T/C,[7],99 % of control
same,T/C,[8],97 % of control
CC(=O)OC(C)(C)/C=C/C(=O)[C@](C)(O)[C@H]1[C@H](O)C[C@@]2(C)[C@@H]3CC=C4[C@@H](CC[C@H](O)C4(C)C)[C@]3(CO)C(=O)C[C@]12C,T/C,"dose: 0.6 mg/kg/injection, schedule: Q01DX009 (ip), vehicle: saline sonified",100 % of control
same,T/C,"dose: 1.2 mg/kg/injection, schedule: Q01DX009 (ip), vehicle: saline sonified",100 % of control
same,T/C,"dose: 2.4 mg/kg/injection, schedule: Q01DX009 (ip), vehicle: saline sonified",116 % of control
COc1ccc(OC)c(NC(=O)NC(c2ccccc2)c2ccccc2)c1,T/C,"dose: 3.12 mg/kg/injection, schedule: Q01DX009 (ip), vehicle: Klucel (hydroxypropylcellulose) (HPC)",96 % of control
same,T/C,[10],90 % of control
same,T/C,[2],93 % of control
CCCCCCCCOC(=O)NCCCCC(N)C(=O)O (centres undefined),T/C,[9],87 % of control
same,T/C,[16],101 % of control
same,T/C,[17],103 % of control
Clc1ccc(-c2csc3sc4ccccc4[n+]23)cc1,T/C,[19],111 % of control
same,T/C,[20],118 % of control
same,T/C,[21],113 % of control
CC(C)C1=CC23CCC4C(C)(C(N)=O)CCCC4(C)C2CC1C1C(=O)OC(=O)C13 (centres undefined),T/C,"dose: 100.0 mg/kg/injection, schedule: Q01DX001 (ip), vehicle: saline with Tween-80",91 % of control
CCOC(=O)C1C(=O)N2C(=O)C(NC(C)=O)=C(O)C2C1c1ccccc1 (centres undefined),T/C,"dose: 100.0 mg/kg/injection, schedule: Q04DX002 (ip), vehicle: saline with Tween-80",100 % of control
same,T/C,"dose: 200.0 mg/kg/injection, schedule: Q04DX002 (ip), vehicle: saline with Tween-80",99 % of control
same,T/C,"dose: 400.0 mg/kg/injection, schedule: Q04DX002 (ip), vehicle: saline with Tween-80",100 % of control
